“Also recorded” adds a separate entry of the source. Read-outs that look alike come from different tables or passages of the source. Each block holds one molecule with its values, some of them ahead of it.
Target: HIV-1 protease (Human immunodeficiency virus type 1 group M subtype B, UniProt P03369)
Assay: biochemical
Experimental: HIV-1 protease activity was measured at 37° C. using a continuous fluorimetric assay based on the method of Toth et al., (Toth et al., 1990, Int. J. Pept. Res. 36 544-550). The substrate, 2-aminobenzoyl-threonine-isoleucine-norleucine-(p-nitro)-phenylalanine-glutamine-arginine-NH2 (Abz-NF^* -6), was synthesised by solid phase peptide synthesis (Kent et al., 1991, In: Peptides 1990: Proceedings of the Twenty-First European Peptide Symposium (Girault, E. and Andrew, D. eds.) pp 172-173, ESCOM, Leiden). Enzyme activity was measured as the increase in fluorescence intensity upon substrate hydrolysis. The change in fluorescence intensity was monitored with a Perkin Elmer LS50B luminescence spectrometer fitted with a thermostatted micro cuvette holder. Measurements were carried out using an excitation wavelength of 320 nm (bandwith 5 nm) and an emission wavelength of […] (bandwith 5 nm).
Inhibition assays were routinely carried out at pH 6.5 and μ=0.1 M using a single substrate concentration. The assay mixtures contained 50 μM Abz-NF^* -6 in 100 mM 2-(N-morpholino)ethanesulphonate buffer, containing 10% (v/v) glycerol and 50 μg/ml bovine serum albumin, in a total final volume of 400 μl. Where inhibitors had to be dissolved in dimethyl sulphoxide or other organic solvents, the final concentration of solvent in the control and inhibition assays were kept absolutely constant because of the severe inhibitory effect of some solvents on the enzyme activity (Bergman et al., 1992, 17th Ann. Lorne Conf. on Protein Struct. and Funct. Abstr.). In all assays, the reaction was initiated by the addition of 10 μl of enzyme solution.

[1] = Table 1, pH 6.5, 37° C., read-out: IC50
[2] = Table 9, R isomer, read-out: IC50
[3] = Table 9, S isomer, read-out: IC50
[4] = Table 2, pH 6.5, 37° C., read-out: IC50
[5] = Table 10, pH 6.5, 37° C., read-out: IC50

- protease inhibition, stated in words: quite active
Molecule: CC(C)C1NC(=O)CCCOc2ccc(cc2)CC(C(O)CNC2Cc3ccc(cc3)OCCCNC(=O)C(CCC(N)=O)NC2=O)NC1=O (stereo not shown) [Compound 131]

- protease inhibition, stated in words: reduced potency
- IC50 (read-out: IC50): 850 nM
Molecule: CC[C@H](C)[C@H](NC(=O)[C@@H]1CCCN1C[C@H](O)[C@@H]1Cc2ccc(cc2)OCCCC(=O)N[C@@H](CC(N)=O)C(=O)N1)C(N)=O [Compound 5]

- protease inhibition, stated in words: increased potency
Molecule: CC(C)[C@@H]1NC(=O)CCCOc2ccc(cc2)C[C@@H]([C@H](O)CN2CCN(Cc3ccccc3)CC2C(=O)NC(C)(C)C)NC1=O (stereo partly shown) [Compound 82]

- IC50 [1]: 49 nM
Molecule: CC[C@H](C)[C@H](NC(=O)[C@@H]1CCCN1C[C@H](O)[C@@H]1Cc2ccc(cc2)OCC(O)C(O)C(=O)N[C@@H](CC(N)=O)C(=O)N1)C(=O)N[C@H](C(N)=O)C(C)C (stereo partly shown) [Compound 11]
- protease inhibition, stated in words: no improvement was observed in potency compared to 3 or 9

- IC50 [2]: 15 nM
Molecule: CC[C@H](C)[C@@H]1NC(=O)[C@@H](NC[C@@H](O)[C@H](Cc2ccccc2)NC(=O)O[C@H]2CCOC2)Cc2ccc(cc2)OCCCNC1=O [Compound 91, [2R, 3S, 11'S, 8'S]-3-[3S-tetrahydrofuranyloxy]amino-4-phenyl-1-[11'-[7',10'-dioxo-8'-(1-methylpropyl)-2'-oxa-6',9'-diazabicyclo[11.2.2]heptadeca-13',15',16'-triene]amino]butan-2-ol]
- protease inhibition, stated in words: not better as a P2 filler over the t-butyl group in 89

- IC50 (read-out: IC50): 490 nM
Molecule: CC(C)(C)NC(=O)[C@@H]1CCCN1C[C@H](O)[C@@H]1Cc2ccc(cc2)OCCCC(=O)N[C@@H](CC(N)=O)C(=O)N1 [Compound 39]

Molecule: Ac-LNFPIV-NH2 [Compound 85, reference compound]
- IC50 [2]: 60 nM
- IC50 [3]: 9 nM

Molecule: CC[C@H](C)[C@H](NC(=O)[C@@H]1CCCN1C[C@@H](O)[C@@H]1Cc2ccc(cc2)OCC(=O)N[C@@H](Cc2cnc[nH]2)C(=O)N[C@@H](CC(N)=O)C(=O)N1)C(=O)N[C@H](C(N)=O)C(C)C [Compound 21]
- IC50 (pH 6.5): 339 nM

- protease inhibition, stated in words: slightly reduced potency
- IC50 [4]: 45 nM
Molecule: CCOC(=O)CCCOc1ccc(C[C@H](NC(=O)[C@H](CC(N)=O)NC(C)=O)[C@@H](O)CN2CCC[C@H]2C(=O)N[C@H](C(=O)N[C@H](C(N)=O)C(C)C)[C@@H](C)CC)cc1 [Compound 15]

- IC50 (read-out: IC50): 194 nM
Molecule: CC(C)(C)NC(=O)[C@@H]1CCCN1C[C@@H](O)[C@@H]1Cc2ccc(cc2)OCCCC(=O)N[C@@H](CC(N)=O)C(=O)N1 [Compound 38]

- potency relative to compound 110: 100 -fold
Molecule: CC[C@H](C)[C@@H]1NC(=O)[C@@H](NC[C@@H](O)[C@@H]2Cc3ccc(cc3)OCCCC(=O)N[C@@H](CC(N)=O)C(=O)N2)Cc2ccc(cc2)OCCCNC1=O [Compound 109]

Molecule: CC[C@H](C)[C@@H]1NC(=O)[C@@H](NC[C@@H](O)[C@H](Cc2ccccc2)NC(=O)OC(C)(C)C)Cc2ccc(cc2)OCCCNC1=O [Compound 89, [2R, 3S, 11'S, 8'S]-3-[t-butoxycarbonyl]amino-4-phenyl-1-[11'-[7', 10'-dioxo-8'-(1-methylpropyl)-2'-oxa-6',9'-diazabicyclo[11.2.2]heptadeca-13',15',16'-triene]amino]butan-2-ol]
- IC50 [2]: 15 nM

- protease inhibition, stated in words: only μM instead of nM
- IC50 (read-out: IC50): 1700 nM
Molecule: CC(C)CN(CC(=O)NC(C)(C)C)C[C@@H](O)[C@@H]1Cc2ccc(cc2)OCCCC(=O)N[C@@H](CC(N)=O)C(=O)N1 [Compound 26]

- IC50 [5]: 2 nM
Molecule: CC[C@H](C)[C@@H]1NC(=O)[C@@H](NC[C@@H](O)[C@H](Cc2ccc(OCC(=O)OC)cc2)NC(=O)OC(C)(C)C)Cc2ccc(cc2)OCCCNC1=O [Compound 101]

Molecule: Ac-LVFFIV-NH2 [Compound 86, reference compound]
- IC50 [2]: 5 nM

Molecule: CC(C)N(C(=O)[C@@H]1CCCN1C[C@H](O)[C@@H]1Cc2ccc(cc2)OCCCC(=O)N[C@@H](CC(N)=O)C(=O)N1)C(C)C [Compound 41]
- IC50: 290000 nM
- protease inhibition, stated in words: much less active

- protease inhibition, stated in words: activity was instead reduced
- IC50 [4]: 28000 nM
Molecule: CC[C@H](C)[C@H](NC(=O)[C@@H]1CCCN1C[C@H](O)[C@@H]1CSSCC(NC(C)=O)C(=O)NCC(=O)N[C@@H](CC(N)=O)C(=O)N1)C(=O)N[C@H](C(N)=O)C(C)C (stereo partly shown) [Compound 17]

- IC50 [5]: 5 nM
Molecule: CC[C@H](C)[C@@H]1NC(=O)[C@@H](NC[C@@H](O)[C@H](Cc2ccc(OCC(=O)O)cc2)NC(=O)OC(C)(C)C)Cc2ccc(cc2)OCCCNC1=O [Compound 99]

Molecule: CC(C)N(C(=O)[C@@H]1CCCN1C[C@@H](O)[C@@H]1Cc2ccc(cc2)OCCCC(=O)N[C@@H](CC(N)=O)C(=O)N1)C(C)C [Compound 40]
- IC50: 106000 nM
- protease inhibition, stated in words: much less active

- IC50 (read-out: IC50): 1 nM
Molecule: O=C1N(Cc2ccc(CO)cc2)[C@H](Cc2ccccc2)[C@H](O)[C@@H](O)[C@@H](Cc2ccccc2)N1Cc1ccc(CO)cc1 [Compound 94, reference compound]

- protease inhibition, stated in words: more successfully mimics JG-365
Molecule: CC[C@H](C)[C@@H]1NC(=O)[C@@H]2CN(CCCCCNC1=O)CCN2C[C@@H](O)[C@@H]1Cc2ccc(cc2)OCCCC(=O)N[C@@H](C(C)C)C(=O)N1 [Compound 123]

Molecule: CC[C@H](C)[C@H](NC(=O)[C@@H]1CCCN1C[C@@H](O)[C@@H]1Cc2ccc(cc2)OCCNCC(=O)N[C@@H](CC(N)=O)C(=O)N1)C(=O)N[C@H](C(N)=O)C(C)C [Compound 8]
- IC50 [1]: 700 nM

Molecule: CC[C@H](C)[C@H](NC(=O)[C@H](Cc1ccccc1)NC[C@H](O)[C@@H]1Cc2ccc(cc2)OCCCC(=O)N[C@@H](C(C)C)C(=O)N1)C(=O)N[C@H](C(N)=O)C(C)C [Compound 47]
- protease inhibition, stated in words: there was not a great deal of difference

- protease inhibition, stated in words: much less active than 38 & 39
- IC50 (Table 5, pH 6.5, 37° C., read-out: IC50): 7050 nM
Molecule: CCOC(=O)CCCOc1ccc(C[C@H](NC(=O)[C@H](CC(N)=O)NC(=O)OC(C)(C)C)[C@H](O)CN2CCC[C@H]2C(=O)NC(C)(C)C)cc1 [Compound 36]

Molecule: Ac-SLNFPIV-NH2 [Compound 84, reference compound]
- IC50 [2]: 22 nM
- IC50 [3]: 1 nM

Molecule: AcLeuAsnPhe[^* CHOH--CH2 N]ProIleValOMe [Compound 1, reference compound]
- IC50 (AcLeuAsnPhe[CHOH--CH2 N]ProIleValOMe, pH 6.5, 37° C., read-out: IC50): 60 nM
- reduction of protease inhibition on truncation of the Serine (versus JG-365): 10 -fold

- protease inhibition, stated in words: little effect
- IC50 [2]: 5 nM
Molecule: CC[C@H](C)[C@@H]1NC(=O)[C@@H](NC[C@@H](O)[C@H](Cc2ccccc2)NC(=O)[C@@H](NC(=O)[C@H](CC(C)C)NC(C)=O)C(C)C)Cc2ccc(cc2)OCCCCNC1=O [Compound 88]

- IC50 [4]: 165 nM
Molecule: CC[C@H](C)[C@H](NC(=O)[C@@H]1CCCN1C[C@@H](O)[C@@H]1Cc2ccc(cc2)OCCCCC(=O)N[C@@H](CC(N)=O)C(=O)N1)C(=O)N[C@H](C(N)=O)C(C)C [Compound 12]

- IC50 [5]: 2 nM
Molecule: CCCCCCOC(=O)COc1ccc(C[C@H](NC(=O)OC(C)(C)C)[C@H](O)CN[C@H]2Cc3ccc(cc3)OCCCNC(=O)[C@H]([C@@H](C)CC)NC2=O)cc1 [Compound 105]

- IC50 (Table 7, pH 6.5, 37° C., read-out: IC50): 2 nM
Molecule: CC(C)CCN(C[C@@H](O)[C@@H]1Cc2ccc(cc2)OCCCC(=O)N[C@@H](C(C)C)C(=O)N1)S(=O)(=O)c1ccc(N)cc1 [Compound 60]
- protease inhibition, stated in words: Greater activity; also recorded: potent inhibitors of HIV-1 protease

- IC50 (read-out: IC50): 50 nM
Molecule: CC[C@H](C)[C@@H]1NC(=O)[C@@H](NCC(O)[C@H](Cc2ccccc2)NC(=O)c2cccc(C)c2)Cc2ccc(cc2)OCCCNC1=O (stereo partly shown) [Compound 92]

Molecule: CC[C@H](C)[C@H](NC(=O)[C@@H]1CCCN1C[C@@H](O)[C@@H]1Cc2ccc(cc2)OCCCC(=O)N[C@@H](CC(N)=O)C(=O)N1)C(=O)N[C@H](C(N)=O)C(C)C [Compound 2]
- IC50: 1580 nM

- protease inhibition, stated in words: no dramatic increase in potency
- IC50 [4]: 26 nM
Molecule: CC[C@H](C)[C@H](NC(=O)[C@@H]1CCCN1C[C@H](O)[C@@H]1Cc2ccc(cc2)OCCCCC(=O)N[C@@H](CC(N)=O)C(=O)N1)C(=O)N[C@H](C(N)=O)C(C)C [Compound 13]

Molecule: CC(C)(C)NC(=O)CN(Cc1ccccc1)C[C@H](O)[C@@H]1Cc2ccc(cc2)OCCCC(=O)N[C@@H](CC(N)=O)C(=O)N1 [Compound 29]
- IC50: 46000 nM

Molecule: CC(C)CNC(=O)C(Cc1ccccc1)NC[C@@H](O)[C@@H]1Cc2ccc(cc2)OCCCC(=O)N[C@@H](CC(N)=O)C(=O)N1 (stereo partly shown) [Compound 34]
- IC50: 5200 nM

- IC50 (Table 11, pH 6.5, 37° C., read-out: IC50): 8 nM
- IC50 (read-out: IC50): 1 nM
Molecule: CC[C@H](C)[C@@H]1NC(=O)[C@@H](NC[C@@H](O)[C@@H]2Cc3ccc(cc3)OCCCC(=O)N[C@@H](C(C)C)C(=O)N2)Cc2ccc(cc2)OCCCNC1=O [Compound 111]
